The values below come from patent US9834526B2 (MERCK SHARP & DOHME CORP., priority 2013, dated 2017).

One may read the pIC50 as the IC50 on a negative log10 scale, so that one unit is a factor of ten.

The test concerns the target T1, wildtype HIV-1 protease (Human immunodeficiency virus type 1 group M subtype B, UniProt P04585).
T1 construct: preincubated with the HIV-1 protease (wild type) enzyme in assay buffer; made in house; host or cells: Escherichia coli
Briefly: Inhibition of microbial expressed HIV protease (Pepcleav). The format is biochemical. As to conditions: wild type HIV-1 protease expressed in E. coli, 20 pM enzyme, 400 micromolar peptide substrate, pH 5.5, LC-MS readout; mean of at least two independent experiments. How it is done: Assay for Inhibition of Microbial Expressed HIV Protease (“Pepcleav”)
Studies of the inhibition of the wildtype HIV-1 protease (which was expressed in Escherichia coli) were carried out with a peptide substrate [Val-Ser-Gln-Asn-(βnaphthyl)Ala-Pro-Ile-Val (SEQ ID NO:1)]. The inhibitor was first preincubated with the HIV-1 protease (wild type) enzyme in assay buffer (50 mM sodium acetate, pH 5.5, 100 mM NaCl, and 0.1% BSA) for 30 minutes at room temperature. Substrate was added to 400 micromolar in a total volume of 20 microliters containing 20 picomolar HIV-1 protease (final) and the reaction was incubated for 1 hour at 30° C. The reaction was quenched with the addition of formic acid and indinavir to 0.012% and 150 nM final concentrations, respectively. The product formation was determined after separation of product and substrate on a Zorbax Eclipse XDB-C18 column connected to an API 4000 mass spectrometer (Applied Biosystems) with multiple reaction monitoring (transitions were 644.5/428.9 and 615.4/422.2 (M1/M3) for product and indinavir respectively). The extent of inhibition of the reaction was determined from the peak area of the products. Analysis of the products, independently synthesized, provided quantitation standards and confirmation of the product composition.

pIC50: −log10 of the molar value.

As for `COC(=O)N[C@H](C(=O)Nc1ccccc1CC[C@@H]1CN[C@H](C)[C@@H](CSc2nc3ncccc3[nH]2)O1)C(c1ccccc1)c1ccccc1` [Example 22, methyl N-[(1S)-1-benzhydryl-2-[[2-[2-[(2R,5R,6S)-6-(1H-imidazo[4,5-b]pyridin-2-ylsulfanylmethyl)-5-methyl-morpholin-2-yl]ethyl]phenyl]amino]-2-oxo-ethyl]carbamate], the pIC50 is 7.35.
Next, `COC(=O)N[C@H](C(=O)Nc1ccccc1CC[C@@H]1CN[C@H](C)[C@@H](CSc2ncnc3c2ncn3[C@@H]2O[C@H](CO)[C@@H](O)[C@H]2O)O1)C(c1ccccc1)c1ccccc1` [Example 23, methyl N-[(1S)-1-benzhydryl-2-[[2-[2-[(2R,5R,6S)-6-[[9-[(2R,3R,4S,5R)-3,4-dihydroxy-5-(hydroxymethyl)tetrahydrofuran-2-yl]purin-6-yl]sulfanylmethyl]-5-methyl-morpholin-2-yl]ethyl]phenyl]amino]-2-oxo-ethyl]carbamate]: 7.28; `COC(=O)N[C@H](C(=O)Nc1ccccc1CC[C@@H]1CN[C@H](C)[C@@H](CSc2nc[nH]n2)O1)C(c1ccccc1)c1ccccc1` [Example 24, methyl N-[(1S)-1-benzhydryl-2-[[2-[2-[(2R,5R,6S)-5-methyl-6-(1H-1,2,4-triazol-3-ylsulfanylmethyl)morpholin-2-yl]ethyl]phenyl]amino]-2-oxo-ethyl]carbamate]: 7.23; `COC(=O)N[C@H](C(=O)Nc1ccccc1CC[C@@H]1CN[C@H](C)[C@@H](CSc2nc(N)c3cn[nH]c3n2)O1)C(c1ccccc1)c1ccccc1` [Example 25, methyl N-[(1S)-1-[[2-[2-[(2R,5R,6S)-6-[(4-amino-1H-pyrazolo[3,4-d]pyrimidin-6-yl)sulfanylmethyl]-5-methyl-morpholin-2-yl]ethyl]phenyl]carbamoyl]-2,2-diphenyl-ethyl]carbamate]: 7.00.
Next, `COC(=O)N[C@H](C(=O)Nc1ccccc1CC[C@@H]1CN[C@H](C)[C@@H](CSc2nnc(CN3CCCC3)o2)O1)C(c1ccccc1)c1ccccc1` [Example 26, methyl N-[(1S)-1-benzhydryl-2-[[2-[2-[(2R,5R,6S)-5-methyl-6-[[5-(pyrrolidin-1-ylmethyl)-1,3,4-oxadiazol-2-yl]sulfanylmethyl]morpholin-2-yl]ethyl]phenyl]amino]-2-oxo-ethyl]carbamate]: 6.91.
The result for `COC(=O)N[C@H](C(=O)Nc1ccccc1CC[C@@H]1CN[C@H](C)[C@@H](CSc2nc(C)cc(C)c2C#N)O1)C(c1ccccc1)c1ccccc1` [Example 27, methyl N-[(1S)-1-benzhydryl-2-[[2-[2-[(2R,5R,6S)-6-[(3-cyano-4,6-dimethyl-2-pyridyl)sulfanylmethyl]-5-methyl-morpholin-2-yl]ethyl]phenyl]amino]-2-oxo-ethyl]carbamate] reads 6.90; that for `COC(=O)N[C@H](C(=O)Nc1ccccc1CC[C@@H]1CN[C@H](C)[C@@H](CSc2nnnn2CCN(C)C)O1)C(c1ccccc1)c1ccccc1` [Example 28, methyl N-[(1S)-1-benzhydryl-2-[[2-[2-[(2R,5R,6S)-6-[[1-(2-dimethylaminoethyl)tetrazol-5-yl]sulfanylmethyl]-5-methyl-morpholin-2-yl]ethyl]phenyl]amino]-2-oxo-ethyl]carbamate], 6.67; that for `COC(=O)N[C@H](C(=O)Nc1ccccc1CC[C@@H]1CN[C@H](C)[C@@H](CSc2ncc[nH]2)O1)C(c1ccccc1)c1ccccc1` [Example 29, methyl N-[(1S)-1-benzhydryl-2-[[2-[2-[(2R,5R,6S)-6-(1H-imidazol-2-ylsulfanylmethyl)-5-methyl-morpholin-2-yl]ethyl]phenyl]amino]-2-oxo-ethyl]carbamate], 6.63.
Compound `COC(=O)N[C@H](C(=O)Nc1ccccc1CC[C@@H]1CN[C@H](COC(C)=O)[C@@H](CSc2nnc(-c3ccncc3)o2)O1)C(c1ccccc1)c1ccccc1` [Example 30, [(2S,3R,6R)-6-[2-(2-{[N-(methoxycarbonyl)-β-phenyl-L-phenylalanyl]amino}phenyl)ethyl]-2-({[5-(pyridin-4-yl)-1,3,4-oxadiazol-2-yl]sulfanyl}methyl)morpholin-3-yl]methyl acetate] had a pIC50 of 10.48.
In turn, `COC(=O)N[C@H](C(=O)Nc1ccccc1CC[C@@H]1CN[C@H](CO)[C@@H](CSc2nnc(-c3ccncc3)o2)O1)C(c1ccccc1)c1ccccc1` [Example 31, N-(2-{2-[(2R,5R,6S)-5-(hydroxymethyl)-6-({[5-(pyridin-4-yl)-1,3,4-oxadiazol-2-yl]sulfanyl}methyl)morpholin-2-yl]ethyl}phenyl)-Nα-(methoxycarbonyl)-β-phenyl-L-phenylalaninamide] gave a pIC50 of 9.77.
For `COC(=O)N[C@H](C(=O)Nc1ccccc1CC[C@@H]1CN[C@H](c2ncc[nH]2)[C@@H](CSc2nnc(-c3ccncc3)o2)O1)C(c1ccccc1)c1ccccc1` [Example 32, N-(2-{2-[(2R,5R,6S)-5-(1H-imidazol-2-yl)-6-({[5-(pyridin-4-yl)-1,3,4-oxadiazol-2-yl]sulfanyl}methyl)morpholin-2-yl]ethyl}phenyl)-Nα-(methoxycarbonyl)-β-phenyl-L-phenylalaninamide], the pIC50 was 9.19.
With `COC(=O)N[C@H](C(=O)Nc1ccccc1CC[C@@H]1CN[C@H](COCc2ccccc2)[C@@H](CSc2nnc(-c3ccncc3)o2)O1)C(c1ccccc1)c1ccccc1` [Example 33], the pIC50 is 9.33. This pIC50 and that of the compound before are within 0.2 log units of each other.
On to `COC(=O)N[C@H](C(=O)Nc1ccccc1CC[C@@H]1CN[C@H](COC(=O)NCc2ccc(F)cc2)[C@@H](CSc2nnc(-c3ccncc3)o2)O1)C(c1ccccc1)c1ccccc1` [Example 35, N-(2-{2-[(2R,5R,6S)-5-({[(4-fluorobenzyl)carbamoyl]oxy}methyl)-6-({[5-(pyridin-4-yl)-1,3,4-oxadiazol-2-yl]sulfanyl}methyl)morpholin-2-yl]ethyl}phenyl)-Nα-(methoxycarbonyl)-β-phenyl-L-phenylalaninamide], for which the pIC50 is 10.52.
`C[C@@H]1O[C@H](CCc2c(F)cccc2NC(=O)[C@@H](N)C(c2ccc(F)cc2)c2ccc(F)cc2)CN[C@@H]1COC(N)=O` [Example 36, N-[2-(2-{(2R,5R,6S)-5-[(carbamoyloxy)methyl]-6-methylmorpholin-2-yl}ethyl)-3-fluorophenyl]-4-fluoro-β-(4-fluorophenyl)-L-phenylalaninamide]: the pIC50 is 7.41.
Turning to `C[C@@H]1O[C@H](CCc2c(F)cccc2NC(=O)[C@@H](N)C(c2ccc(F)cc2)c2ccc(F)cc2)CN[C@@H]1COC(=O)N[C@@H](C)C(F)(F)F` [Example 37, 4-fluoro-N-[3-fluoro-2-(2-{(2R,5R,6S)-6-methyl-5-[({[(1S)-2,2,2-trifluoro-1-methylethyl]carbamoyl}oxy)methyl]morpholin-2-yl}ethyl)phenyl]-β-(4-fluorophenyl)-L-phenylalaninamide], the pIC50 is 8.51.
As to `CC[C@@H](NC(=O)OC[C@H]1NC[C@@H](CCc2c(F)cccc2NC(=O)[C@@H](N)C(c2ccc(F)cc2)c2ccc(F)cc2)O[C@H]1C)c1ccc(F)cc1` [Example 38, 4-fluoro-N-[3-fluoro-2-(2-{(2R,5R,6S)-5-[({[(1R)-1-(4-fluorophenyl)propyl]carbamoyl}oxy)methyl]-6-methylmorpholin-2-yl}ethyl)phenyl]-β-(4-fluorophenyl)-L-phenylalaninamide], the pIC50 was 8.36.
`COC(=O)N[C@H](C(=O)Nc1ccccc1CC[C@@H]1CN[C@H](C)[C@@H](CSc2cc(N3CCN(C)CC3)ncn2)O1)C(c1ccccc1)c1ccccc1` [Example 39]: the pIC50 is 6.38.
On to `COC(=O)N[C@H](C(=O)Nc1ccccc1CC[C@@H]1CN[C@H](C)[C@@H](CS(=O)(=O)c2ccc(Cl)cc2)O1)C(c1ccccc1)c1ccccc1` [Example 40, N-(2-{2-[(2R,5R,6S)-6-{[(4-chlorophenyl)sulfonyl]methyl}-5-methylmorpholin-2-yl]ethyl}phenyl)-Nα-(methoxycarbonyl)-β-phenyl-L-phenylalaninamide], for which the pIC50 was 6.12. Against the preceding compound, the pIC50 is 0.26 log units lower.
The result for `COC(=O)N[C@H](C(=O)Nc1ccccc1CC[C@@H]1CN[C@H](C)[C@@H](C[S@@+]([O-])c2ccc(Cl)cc2)O1)C(c1ccccc1)c1ccccc1` [Example 41, N-(2-{2-[(2R,5R,6S)-6-{[(R)-(4-chlorophenyl)sulfinyl]methyl}-5-methylmorpholin-2-yl]ethyl}phenyl)-Nα-(methoxycarbonyl)-β-phenyl-L-phenylalaninamide] reads 6.05; that for `COC(=O)N[C@H](C(=O)Nc1ccccc1CC[C@@H]1CN[C@H](COCc2ccccc2)[C@@H](CO)O1)C(c1ccccc1)c1ccccc1` [Example 42, N-(2-{2-[(2R,5R,6S)-5-[(benzyloxy)methyl]-6-(hydroxymethyl)morpholin-2-yl]ethyl}phenyl)-Nα-(methoxycarbonyl)-β-phenyl-L-phenylalaninamide], 7.10.
Next, `COC(=O)N[C@H](C(=O)Nc1ccccc1CC[C@@H]1CN[C@H](COC(=O)NCC(F)(F)F)[C@@H](CSc2nnc(-c3ccncc3)o2)O1)C(c1ccccc1)c1ccccc1` [Example 43]: 11.00.
